This note sets out measurements from patent US12071431B2, “Pyridin-sulfonamide compounds for the treatment of conditions related to interleukin 1 beta” (ALLINKY BIOPHARMA, priority 2018, dated 2024).

Data set [1] has as its system human primary macrophages. Nature of the data set: Cell viability assessment (CellTiter-Glo) in the macrophage assay plates. In kind it is cell-based. More on the design: concentration or dose not given beside the values. As to conditions: CellTiter-Glo luminescent assay. The procedure: 2×10^5 PBMCs at a total volume of 200 μL/well were plated into a 96-well plate and incubated for 4 hrs at 37° C. in a CO2 incubator to allow the monocytes to settle, leaving the lymphocytes in suspension. Following incubation, 100 μL were aspirated out of each well to ensure removal of the lymphocyte population. The monocytes were differentiated to macrophages by addition of 200 ng/mL of recombinant human GM-CSF (4 mg/mL stock) and incubated at 37° C./5% CO2 for 6 days. The medium was changed every two days by removing half the volume of medium in the well and re-supplementing with fresh RPMI complete medium and recombinant human GM-CSF. Following differentiation, the cells were treated in duplicates with a compound according to the invention in a total volume of 50 μL, maintaining a final DMSO percentile of 0.5%. The plate was transferred to an incubator maintained at 37° C./5% CO2 for 2 hours. The cells were stimulated with 100 ng/mL of LPS (4×) (1 mg/mL stock) in a total volume of 50 μL. The plate was transferred to an incubator maintained at 37° C./5% CO2 for 16 hours. 100 μl/well volume of CellTiter-Glo® luminescent reagent was added to the assay plates and incubated at room temperature for 30 mins on a plate shaker. Following incubation, the luminescent signal of each well was determined using a microplate reader (Perkin Elmer ENVISION 2104). Cytotoxicity of the test compounds was determined utilizing the following formula: % Cytotoxicity=100−(100*(Average Test Compound Counts−Average Negative Control Counts)/(Average Positive Control Counts−Average Negative Control Counts)) All of the “Counts” stated in this formula are derived from “luminescent signal” determined as described for the cytokine viability assessment.
(Cellular ATP, detected with luciferase, serves as a proxy for viable cell number.)

Another data set concerns the target Recombinant Human MAPK8 (Homo sapiens, UniProt P45983). Nature of the data set: In vitro binding of JNK1 (MAPK8), SPRi. The settings on record: 4° C. The procedure: Example 13—In Vitro Binding of JNK1 (MAPK8)
Various concentrations of Recombinant Human MAPK8 dissolved in water were manually printed onto a bare gold-coated (thickness 47 nm) PlexArray Nanocapture Sensor Chip (Plexera Bioscience, Seattle, WA, US) at 40% humidity. Each concentration was printed in replicate, and each spot contained 0.2 μL of the protein solution. The chip was incubated in 80% humidity at 4° C. overnight, and rinsed with 10×PBST for 10 min, 1×PBST for 10 min, and deionized water twice for 10 min. The chip was then blocked with 5% (w/v) non-fat milk in water overnight, and washed with 10×PBST for 10 min, 1×PBST for 10 min, and deionized water twice for 10 min before being dried under a stream of nitrogen prior to use.
Surface Plasmon Resonance Imaging (SPRi) measurements were performed with PlexAray HT (Plexera Bioscience, Seattle, WA, US). Collimated light (660 nm) passes through the coupling prism, reflects off the SPR-active gold surface, and is received by the CCD camera. Buffers and samples were injected by a non-pulsatile piston pump into the 30 μL flowcell that was mounted on the coupling prism. Each measurement cycle contained four steps: washing with PBST running buffer at a constant rate of 2 μL/s to obtain a stable baseline, sample injection at 5 μL/s for binding, surface washing with PBST at 2 μL/s for 300 s, and regeneration with 0.5% (v/v) H3PO4 at 2 μL/s for 300 s. All the measurements were performed at 4° C.
The signal changes after binding and washing were recorded in AU as the assay value. Selected protein-grafted regions in the SPR images were analyzed, and the average reflectivity variations of the chosen areas were plotted as a function of time. Real-time binding signals were recorded and analyzed by Data Analysis Module (DAM, Plexera Bioscience, Seattle, WA, US). Kinetic analysis was performed using BIAevaluation 4.1 software (Biacore, Inc.).

Sequence of Recombinant Human MAPK8 (P45983 whole entry): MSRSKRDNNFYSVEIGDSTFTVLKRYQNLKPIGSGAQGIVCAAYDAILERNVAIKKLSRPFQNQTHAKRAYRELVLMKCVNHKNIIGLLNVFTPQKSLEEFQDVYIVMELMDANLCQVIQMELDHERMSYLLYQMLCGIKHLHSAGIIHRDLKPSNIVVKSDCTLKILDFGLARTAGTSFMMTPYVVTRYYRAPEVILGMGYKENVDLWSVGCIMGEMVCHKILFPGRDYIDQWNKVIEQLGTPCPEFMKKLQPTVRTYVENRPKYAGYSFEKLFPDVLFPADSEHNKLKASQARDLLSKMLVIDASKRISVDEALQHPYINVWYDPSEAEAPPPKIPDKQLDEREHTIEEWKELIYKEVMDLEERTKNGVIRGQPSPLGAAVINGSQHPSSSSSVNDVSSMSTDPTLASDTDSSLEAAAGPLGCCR

The koff is the first-order rate constant of dissociation. One may read the Kd as the free concentration of one partner at which half of the binding sites on the other are occupied at equilibrium, for simple one-to-one binding. Turning to `CCOc1ccc(Oc2cc(S(=O)(=O)N(C)C)cnc2N2CCC(Oc3ccc(Cl)cc3)CC2)cc1` [Compound 7], the Cell viability in data set [1] is on record as 100%. Further, at Recombinant Human MAPK8 (association rate, read-out: Ka), the kon is 22900 M⁻¹ s⁻¹. The koff at Recombinant Human MAPK8 (dissociation rate) turned out to be 0.000782 s⁻¹. On Recombinant Human MAPK8 (read-out: equilibrium dissociation constant (KD Value)), the Kd turned out to be 34.1 nM.
